# Measured values reported in ChEMBL document CHEMBL4680105, “Discovery of Benzenesulfonamide Derivatives as Carbonic Anhydrase Inhibitors with Effective Anticonvulsant Action: Design, Synthesis, and Pharmacological Evaluation” (J Med Chem, 2018).
# Molecular target: Carbonic anhydrase 9 (Homo sapiens, UniProt Q16790)
# Assay: Inhibition of recombinant human carbonic anhydrase 9 by stopped-flow CO2 hydration assay
row,SMILES,Ki
1,NS(=O)(=O)c1ccc(CNC(=O)CN2CCN(C(c3ccc(F)cc3)c3ccc(F)cc3)CC2)cc1,2440 nM
2,NS(=O)(=O)c1ccc(CNC(=O)CCN2CCN(C(=O)OCc3ccccc3)CC2)cc1,257 nM
3,NS(=O)(=O)c1ccc(CNC(=O)CCN2CCN(C(c3ccc(F)cc3)c3ccc(F)cc3)CC2)cc1,98 nM
4,NS(=O)(=O)c1ccc(CNC(=O)CN2CCN(c3ccccc3)CC2)cc1,396 nM
5,NS(=O)(=O)c1ccc(CNC(=O)CN2CCN(Cc3ccc4c(c3)OCO4)CC2)cc1,1600 nM
6,NS(=O)(=O)c1ccc(CNC(=O)CCN2CCN(Cc3ccccc3)CC2)cc1,116 nM
7,NS(=O)(=O)c1ccc(CNC(=O)CN2CCN(c3ccccn3)CC2)cc1,1560 nM

# More lines, now with the values ahead:
row,Ki,SMILES
1,228 nM,NS(=O)(=O)c1ccc(CNC(=O)CN2CCN(c3ccc(F)cc3)CC2)cc1
2,23.7 nM,NS(=O)(=O)c1ccc(CNC(=O)CCN2CCN(c3ccccc3)CC2)cc1
3,162 nM,NS(=O)(=O)c1ccc(CNC(=O)CCN2CCN(c3ccccn3)CC2)cc1
4,1530 nM,Cc1ccc(N2CCN(CC(=O)NCc3ccc(S(N)(=O)=O)cc3)CC2)cc1
5,1200 nM,NS(=O)(=O)c1ccc(CNC(=O)CN2CCN(c3ccc(Cl)cc3)CC2)cc1
6,117 nM,NS(=O)(=O)c1ccc(CNC(=O)CCN2CCN(c3ccc(Cl)cc3)CC2)cc1
